From US12324893B2, “Triptan microporation delivery system” (PassPort Technologies, Inc., priority 2019, dated 2025) come the findings set out here.

Molecules are shown by their SMILES.

The series is described as follows: in vivo. As to conditions: rat; for AUC / Cmax: hairless; for Tmax: in vivo. The procedure:
In this study, four groups of hairless rats were tested under the following conditions: (1) Group 1 (3 mg free base API, Suc: 0.5 mg, AA: 1 mg); (2) Group 2 (6 mg free base API, Suc: 0.5 mg, AA: 1 mg); (3) Group 3 (9 mg free base API, Suc: 0.5 mg, AA: 1 mg); and (4) Group 4 (6 mg free base API per 100 μL head of saline).
The given bioavailability of Table 18 is relative bioavailability against SC injection.

Consider `CNS(=O)(=O)Cc1ccc2[nH]cc(CCN(C)C)c2c1` [Sumatriptan Succinate], for which the AUC stood at 5380 ng·h/mL (sc, 6 mg); 2600 ng·h/mL (topical or ocular, 3 mg); 3810 ng·h/mL (topical or ocular, 6 mg); 4390 ng·h/mL (topical or ocular, 9 mg). The compound further registered a Cmax (sc, 6 mg) of 9780 ng/mL; a Cmax (topical or ocular, 3 mg) of 1040 ng/mL; a peak concentration (Cmax) (topical or ocular, 6 mg) of 1400 ng/mL; a Cmax (topical or ocular, 9 mg) of 1580 ng/mL. Further, the time to peak (Tmax) (topical or ocular, 6 mg) was found to be 1.3 h and the Tmax (topical or ocular, 9 mg) worked out at 1.1 h.
